Test results taken from patent US4900672A, “Method for preservation of nitrile hydration activity” (Nitto Kagaku Kogyo Kabushiki Kaisha, priority 1986, dated 1990).

Columns and labels:
nitrile hydratase [1] = molecular target: T1, nitrile hydratase (Pseudomonas chlororaphis, UniProt P27763+P27764); assay: Preservation of nitrile hydration activity of polyacrylamide gel-immobilized cells left standing; format: cell-based, Pseudomonas chlororaphis B23 (FERM BP-187); conditions: Table 7
T1 sequence (P27764 1-200): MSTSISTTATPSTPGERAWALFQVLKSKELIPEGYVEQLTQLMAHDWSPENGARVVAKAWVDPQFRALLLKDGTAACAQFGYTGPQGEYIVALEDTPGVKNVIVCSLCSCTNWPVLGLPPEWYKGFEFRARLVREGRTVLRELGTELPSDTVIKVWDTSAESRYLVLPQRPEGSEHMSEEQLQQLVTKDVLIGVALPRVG
T1 sequence (P27763 1-220): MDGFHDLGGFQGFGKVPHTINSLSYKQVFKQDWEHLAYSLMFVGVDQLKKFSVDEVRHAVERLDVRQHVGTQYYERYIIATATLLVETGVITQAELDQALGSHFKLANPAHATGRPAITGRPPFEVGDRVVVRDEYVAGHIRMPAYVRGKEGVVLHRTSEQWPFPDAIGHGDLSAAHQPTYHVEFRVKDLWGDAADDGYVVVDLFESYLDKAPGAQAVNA
Protocol: 40 ml of washed cells (water content 75%) prepared as in Example 1, 4.5 g of acrylamide, 0.5 g of N,N'-methylenebisacrylamide, and 40 ml of M/20 phosphate buffer (containing 10 g/l of ammonium isobutyrate, pH 6.0) were mixed to form a homogeneous suspension. To this suspension were added 5 ml of a 5% aqueous solution of dimethylaminopropionitrile and 10 ml of a 1% aqueous solution of potassium persulfate, and the mixture was maintained at 10° C. for 30 minutes to cause polymerization. A mass of cell-containing gel obtained was crushed into small particles, which were thoroughly washed with M/20 phosphate buffer containing 5 g/l of ammonium isobutyrate, pH 7.0, whereby approximately 90 g of immobilized cells were obtained.
The washed, immobilized cells thus obtained were placed in the same buffer containing 5 g/l of isobutyric acid and left standing at 0° C. for 5 days. […]
The nitrile hydration activity levels of the gel samples were measured as follows before and after the respective immobilized cells were left standing.
1 g of immobilized gel was mixed with 5 g of acrylonitrile and 97 ml of M/20 phosphate buffer (pH 7.7), and the mixture was subjected to reaction at 0° C. for 20 minutes with stirring. The quantities of acrylamide in the respective reaction solutions were determined by gas chromatography.

nitrile hydratase [2] = molecular target: T1, nitrile hydratase; assay: Preservation of nitrile hydration activity of cell extract (crude enzyme solution) left standing; format: biochemical, Pseudomonas chlororaphis B23 (FERM BP-187); conditions: Table 6
Protocol: The resultant cell suspension was pressed in a French press (fabricated by Ohtake Seisakusho, Japan) to crush cells under a pressure of 1,000 to 1,500 kg G and then subjected to centrifugation (12,000 rpm, 30 minutes) to remove uncrushed cells and insolubles such as cell walls, whereby a cell extract, i.e. a crude enzyme solution, was obtained.
For comparison purposes, a similar cell suspension (3.2×10^3 U/ml) which contained no ammonium isobutyrate was prepared and subjected to a French press treatment and centrifugation under similar conditions, whereby a control cell extract was obtained.

nitrile hydratase [3] = molecular target: T1, nitrile hydratase; assay: Preservation of nitrile hydration activity of enzyme immobilized on DEAE-Cellulofine AM left standing; format: biochemical, Pseudomonas chlororaphis B23 (FERM BP-187); conditions: Table 8
Protocol: 25 ml each of a cell extract containing ammonium isobutyrate and a control cell extract containing no ammonium isobutyrate prepared as in Example 95 and comparison Example 11 were mixed with 15 g each of DEAE-Cellulofine AM (supplied by Seikagaku Kogyo Co., Ltd., Japan) equilibrated with M/20 phosphate buffer (pH 7.7). The mixture was stirred at 0° C. for 90 minutes to immobilize the enzymes.
The results are presented in Table 8 in which the protein levels in the immobilized enzymes were determined in accordance with the procedure of Lowry et al.

CC(C)C(=O)O.N [Ammonium Isobutyrate, ammonium isobutyrate]
Quant. of AA produced (%) after cells were left standing (nitrile hydratase [1]; immobilized cells left standing at 0° C. for 5 days in buffer with 5 g/l stabilizer, control without: 0.52): 0.93%
Quant. of AA produced (%) before cells were left standing (nitrile hydratase [1]; immobilized cells, 1 g gel + 5 g acrylonitrile, 0° C., 20 minutes, control without: 0.88): 1.02%
Activity Before Being Left Standing (nitrile hydratase [2]; cell extract from suspension mixed 1:1 with buffer (pH 6.5) containing 10 g/l ammonium isobutyrate, control without: 2.7 × 10^3): 2.9 × 10^3 U/ml
Activity After Being Left Standing (nitrile hydratase [2]; cell extract, 3 days ice-cooled, control without: 1.0 × 10^3): 2.8 × 10^3 U/ml
% Residual Activity (nitrile hydratase [2]; cell extract, 3 days ice-cooled, control without: 38): 94%
Activity Before Being Left Standing (nitrile hydratase [3]; enzyme immobilized on DEAE-Cellulofine AM, control without: 4.6): 19.4
Activity After Being Left Standing (nitrile hydratase [3]; immobilized enzyme, 3 days ice-cooled, control without: 1.7): 18.4
% Residual Activity (nitrile hydratase [3]; immobilized enzyme, 3 days ice-cooled, control without: 37): 95%
